Measured values as given in PMC11661808 (ADMET & DMPK, 2024).
Where two headings read alike, the source gives them in different places. Each block holds one compound with its values, some of them ahead of it.

Legend:
[1] = Ketoconazole concentration in plasma and ocular tissues after single topical ocular instillation; format: in vivo, Sprague Dawley rats; details: for concentration at 5 min / concentration at 120 min / concentration at 30 min: Sprague Dawley, rat, topical; for concentration at 120 min: 120 min post-dose; for concentration at 30 min: 30 min post-dose
Protocol: The mixture was stirred at 40 °C. Subsequently, 0.040 mL of 1 M hydrochloric acid was added, and the mixture was stirred at 40 °C until it was completely dissolved. 0.250 mL of hydroxypropyl beta-cyclodextrin (HPβCD) was added and vortexed and stirred at 40 °C until clear. 0.005 mL of 1 M sodium hydroxide was added to adjust the pH to 6.5-7.0 while stirring magnetically at 40 °C, and 0.038 mL of water was added, vortexed, and stirred at 40 °C until clear.
Each tissue was then homogenized using an Ultrasonic Cell Crusher for 5 seconds. The cornea and retina homogenates were sonicated for 10 min, while the vitreous was sonicated for 30 min at 0 °C prior to bioanalysis. The ocular tissue homogenates were stored in a -80 °C freezer before bioanalysis.
All samples underwent protein precipitation for pharmacokinetic analysis. Plasma and three types of tissue homogenate samples (50 μL each) were treated with 5 μL of methanol and then quenched with a 200 μL methanol and acetonitrile mixture (1:1, v/v) containing 50 ng/mL terfenadine as an internal standard (ISTD). After vortexing for 1 min and centrifuging at 4000 rpm for 15 min, the supernatant was transferred and diluted 10-fold with a methanol/water solution (1:1, v/v, containing 0.1 % formic acid) for LC-MS/MS analysis. The working solution was prepared with a concentration range of 50.0 to 100,000 ng/mL.
The quantitative sample analysis was performed on a Shimadzu LC-20AD (Shimadzu, Japan) - API 4000 mass spectrometer (SCIEX, Canada).

[2] = humans, cited from earlier work
[3] = in vivo
Protocol: (§1) Nine rats were randomly divided into three groups and their body weights were recorded from 254 to 281 g. […] Rats were sacrificed at 5, 30 and 120 min post-dose (n = 3 per time point). Cornea, retina, and vitreous humour samples were collected, washed in saline three times and weighed, while blood samples were taken from the heart puncture. Tissue samples were initially stored on dry ice, while the blood samples were centrifuged at 4 °C and 6000 rpm for 10 min. Subsequently, the plasma samples were prepared and also stored on dry ice. Ultimately, all samples were cryopreserved in a -80 °C freezer after harvest.
(§2) Rat plasma (400 RL, 44.4 LL/rat at each time point) was pooled from 3-time points utilizing the equal volume method and subsequently precipitated with acetonitrile containing 0.1 % formic acid at a ratio of 1:3. Homogenate samples of rat cornea, retina, and vitreous humour (600 L, 66.7 LL /rat) were pooled from three time points individually utilizing the equal volume and transferred into a 15 mL centrifuge tube and subjected to precipitation with acetonitrile containing 0.1 % formic acid at the same ratio of 1:3. Following centrifugation, the supernatant was evaporated under a stream of nitrogen gas. The residues from plasma and rat retina were reconstituted with 150 L of 10 % acetonitrile in H2O (with 0.1 % formic acid), while the residues from the rat cornea and vitreous humour were reconstituted with 100 L of 10 % acetonitrile in H2O (0.1 % formic acid). Four types of blank samples were processed in a similar manner. Ultimately, 10,L samples of each tissue were injected for analysis using the Ultimate 3000-Q-Exactive Plus system.
(§3) Mobile phase A consisted of water containing 0.1 % formic acid, while mobile phase B consisted of acetonitrile with 0.1 % formic acid. […] Mass scanning was performed on the Q-Exactive Plus using positive-ion full MS/dd-MS2 mode with a range from m/z 80 to 900. The collision energy was set at 30, 40 and 50 eV. The mass resolution was set as 70,000 for full MS, and 17,500 for dd-MS2 scans, and the mass error limit was set as 5.0 ppm.

[4] = Metabolite identification and profiling in pooled rat plasma, cornea, retina and vitreous humour after eye drop administration; details: for Relative peak area abundance, COR: pooled rat cornea homogenate (5, 30, 120 min); for Relative peak area abundance, VH: pooled rat vitreous humour homogenate (5, 30, 120 min); for Relative peak area abundance, PLA: pooled rat plasma (5, 30, 120 min)
Protocol: as §1, §2, §3

[5] = plasma, 300 μg per rat, rat plasma, read-out: mean concentration in plasma
[6] = selected ion chromatographic peak areas

Compound: CC(=O)N1CCN(c2ccc(OCC3COC(Cn4ccnc4)(c4ccc(Cl)cc4Cl)O3)cc2)CC1 (centres unmarked) [Ketoconazole]
concentration at 5 min ([1]; cornea, 150 μg per eye, rat cornea, left eye, 5 min post-dose, 150 μg per eye, read-out: mean concentration in cornea, left eye): 416000 ng/g
concentration at 5 min ([1]; cornea, 150 μg per eye, rat cornea, right eye, 5 min post-dose, 150 μg per eye, read-out: mean concentration in cornea, right eye): 430000 ng/g
concentration at 5 min ([1]; cornea, 300 μg per rat, mean ketoconazole concentration in cornea, rat cornea, 5 min post-dose, 300 μg/rat topical ocular): 423000 ng/g
concentration at 120 min ([1]; cornea, 300 μg per rat, mean ketoconazole concentration in cornea, rat cornea, mean of left and right eye): 8360 ng/g
concentration at 30 min ([1]; cornea, 300 μg per rat, rat cornea, mean of left and right eye, read-out: mean concentration in cornea): 113000 ng/g
concentration at 120 min ([1]; plasma, 300 μg per rat, mean ketoconazole concentration in plasma, rat plasma, 300 μg/rat topical ocular): 38.4 ng/mL
concentration at 5 min ([1]; plasma, 300 μg per rat, rat plasma, 5 min post-dose, read-out: mean concentration in plasma): 445 ng/mL
concentration at 30 min [1, 5]: 303 ng/mL
concentration at 120 min [1, 5]: 38.4 ng/mL
concentration at 5 min ([1]; retina, 150 μg per eye, rat retina, left eye, 5 min post-dose, 150 μg per eye, read-out: mean concentration in retina, left eye): 439 ng/g
concentration at 5 min ([1]; retina, 150 μg per eye, rat retina, right eye, 5 min post-dose, 150 μg per eye, read-out: mean concentration in retina, right eye): 552 ng/g
concentration at 5 min ([1]; retina, 300 μg per rat, mean ketoconazole concentration in retina, rat retina, 5 min post-dose, 300 μg/rat topical ocular): 4960 ng/g
concentration at 120 min ([1]; retina, 300 μg per rat, mean ketoconazole concentration in retina, rat retina, mean of left and right eye): 94.4 ng/g
concentration at 30 min ([1]; retina, 300 μg per rat, rat retina, mean of left and right eye, read-out: mean concentration in retina): 1470 ng/g
concentration at 5 min ([1]; vitreous humour, 150 μg per eye, rat vitreous humour, left eye, 5 min post-dose, 150 μg per eye, read-out: mean concentration in vitreous humour, left eye): 1120 ng/g
concentration at 5 min ([1]; vitreous humour, 150 μg per eye, rat vitreous humour, right eye, 5 min post-dose, 150 μg per eye, read-out: mean concentration in vitreous humour, right eye): 1180 ng/g
concentration at 5 min ([1]; vitreous humour, 300 μg per rat, mean ketoconazole concentration in vitreous humour, rat vitreous humour, 5 min post-dose, 300 μg/rat topical ocular): 1190 ng/g
concentration at 120 min ([1]; vitreous humour, 300 μg per rat, mean ketoconazole concentration in vitreous humour, rat vitreous humour, mean of left and right eye): 116 ng/g
concentration at 30 min ([1]; vitreous humour, 300 μg per rat, rat vitreous humour, mean of left and right eye, read-out: mean concentration in vitreous humour): 713 ng/g
mean peak plasma concentration ([1]; rat plasma, 5 min post-dose, 300 μg/rat topical ocular): 445 ng/mL
biphasic elimination, thereafter ([2]; after the first 10 h): 8 h
biphasic elimination, during the first 10 h ([2]; first 10 h): 2 h
time to maximum plasma concentration [2]: 1 to 2 h

Compound: Clc1ccc([C@@]2(Cn3ccnc3)OC[C@H](COc3ccc(N4CCNCC4)cc3)O2)c(Cl)c1 [M4 (DAK), N-deacetyl ketoconazole]
detection in rat plasma ([3]; Sprague Dawley): No N-deacetyl ketoconazole (M4) was found
Relative peak area abundance, COR ([3]; Sprague Dawley, rat): 0.2%
detection in rat plasma [3]: not detected

Compound: CC(=O)N1CCN(c2ccc(OC[C@H]3CO[C@](Cn4ccnc4)(c4ccc(Cl)cc4Cl)O3)cc2)CC1O (some centres unmarked) [Metabolite M1]
Relative peak area abundance, COR [4, 6]: D (detected in trace amount (the relative abundance was less than 0.1 %))
Relative peak area abundance, VH [4, 6]: D (detected in trace amount (the relative abundance was less than 0.1 %))

Other lines, results leading:

Relative peak area abundance, COR [4, 6]: 1.1%
Relative peak area abundance, PLA [4, 6]: 0.1%
Relative peak area abundance, RET ([4]; pooled rat retina homogenate (5, 30, 120 min), selected ion chromatographic peak areas): 1.2%
Relative peak area abundance, VH [4, 6]: 0.6%
abundance of dominant metabolite in cornea, retina ([4]; rat cornea, retina): 1.1-1.2%
Compound: OC[C@H]1CO[C@](Cn2ccnc2)(c2ccc(Cl)cc2Cl)O1 [Metabolite M2]

Relative peak area abundance, COR [4, 6]: 0.1%
Relative peak area abundance, PLA [4, 6]: 0.6%
Compound: CC(=O)N1CCN(c2ccc(OC[C@H]3CO[C@](CN)(c4ccc(Cl)cc4Cl)O3)cc2)CC1 [Metabolite M6]
